Measured values as given in patent US20250346593A1, “IMIDAZO(1,2-1)PYRIDINE DERIVATIVES AS RIPK2 INHIBITORS” (Interline Therapeutics, Inc., priority 2022, published 2025).
Where two headings read alike, the source gives them in different places.

Columns and labels:
[1] = target: GST-RIPK2 fusion protein (human RIPK2 amino acids 1-310) (Homo sapiens (Human), UniProt O43353); experiment: RIPK2 binding competition assay (TR-FRET, Tracer 199)
[2] = system: NF-κB pathway (SEAP) in THP1-Dual cells; experiment: THP-1 Dual cell SEAP assay (L18-MDP stimulated); format: cell-based; details: Homo sapiens, THP1-Dual, read-out: NFkB THP1 IC50
[3] = read-out: RIPK2 IC50, RIPK2 binding competition assay

Sequence of GST-RIPK2 fusion protein (human RIPK2 amino acids 1-310) (O43353 1-310): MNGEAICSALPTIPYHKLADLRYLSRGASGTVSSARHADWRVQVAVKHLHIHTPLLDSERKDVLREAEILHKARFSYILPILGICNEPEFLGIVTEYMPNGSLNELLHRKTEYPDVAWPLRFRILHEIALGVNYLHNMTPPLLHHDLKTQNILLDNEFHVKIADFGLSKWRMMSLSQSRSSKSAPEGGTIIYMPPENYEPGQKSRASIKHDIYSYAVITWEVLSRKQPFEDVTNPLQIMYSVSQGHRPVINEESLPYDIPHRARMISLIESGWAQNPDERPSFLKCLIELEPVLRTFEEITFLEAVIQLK

Row | Compound | IC50 [1] [nM] | IC50 [2] [nM] | IC50 [1, 3] [nM]
1 | COc1cc2ncc(-c3csnc3OC)n2cc1S(=O)(=O)C(C)(C)C [Example 60, 4-(6-(tert-butylsulfonyl)-7-methoxyimidazo[1,2-a]pyridin-3-yl)-3-methoxyisothiazole] | 2.5 to 20 | > 1000 | –
2 | COc1cc2ncc(-c3cc(F)cc(F)n3)n2cc1S(=O)(=O)C(C)(C)C [Example 61, 6-(tert-butylsulfonyl)-3-(4,6-difluoropyridin-2-yl)-7-methoxyimidazo[1,2-a]pyridine] | – | 250 to 1000 | > 20
3 | CCOc1ncc(-c2cnc3cc(OC)c(S(=O)(=O)C(C)(C)C)cn23)s1 [Example 62, 5-(6-(tert-butylsulfonyl)-7-methoxyimidazo[1,2-a]pyridin-3-yl)-2-ethoxythiazole] | – | > 1000 | > 20
4 | COc1cc2ncc(-c3cc(N)c(OCCO)c(F)c3)n2cc1S(=O)(=O)C(C)(C)C [Example 64, 2-(2-amino-4-(6-(tert-butylsulfonyl)-7-methoxyimidazo[1,2-a]pyridin-3-yl)-6-fluorophenoxy)ethan-1-ol] | 2.5 to 20 | 50 to 250 | –
5 | COc1cc2ncc(-c3cc(N)c(OC(F)F)c(F)c3)n2cc1S(=O)(=O)C(C)(C)C [Example 65, 5-(6-(tert-butylsulfonyl)-7-methoxyimidazo[1,2-a]pyridin-3-yl)-2-(difluoromethoxy)-3-fluoroaniline] | 1 to 2.5 | 50 to 250 | –
6 | CCOc1c(N)cc(-c2cnc3cc(OC)c(S(=O)(=O)C(C)(C)C)cn23)cc1F [Example 66, 5-(6-(tert-butylsulfonyl)-7-methoxyimidazo[1,2-a]pyridin-3-yl)-2-ethoxy-3-fluoroaniline] | – | > 1000 | > 20
7 | COc1cc2ncc(-c3ccc(N4CCCC4=O)nc3)n2cc1S(=O)(=O)C(C)(C)C [Example 67, 1-(5-(6-(tert-butylsulfonyl)-7-methoxyimidazo[1,2-a]pyridin-3-yl)pyridin-2-yl)pyrrolidin-2-one] | – | > 1000 | > 20
8 | COc1cc2ncc(-c3cnc(N)c(C)c3)n2cc1S(=O)(=O)C(C)(C)C [Example 68, 5-(6-(tert-butylsulfonyl)-7-methoxyimidazo[1,2-a]pyridin-3-yl)-3-methylpyridin-2-amine] | – | > 1000 | > 20
9 | CNc1ccc(-c2cnc3cc(OC)c(S(=O)(=O)C(C)(C)C)cn23)cn1 [Example 69, 5-(6-(tert-butylsulfonyl)-7-methoxyimidazo[1,2-a]pyridin-3-yl)-N-methylpyridin-2-amine] | – | > 1000 | > 20
10 | COc1cc2ncc(-c3ccc(N)cn3)n2cc1S(=O)(=O)C(C)(C)C [Example 71, 6-(6-(tert-butylsulfonyl)-7-methoxyimidazo[1,2-a]pyridin-3-yl)pyridin-3-amine] | – | > 1000 | > 20
11 | COc1cn2ncc(-c3ccc(N)nc3F)c2cc1S(=O)(=O)C(C)(C)C [Example 72, 5-(5-(tert-butylsulfonyl)-6-methoxypyrazolo[1,5-a]pyridin-3-yl)-6-fluoropyridin-2-amine] | – | > 1000 | > 20
12 | COc1cc2ncc(-c3cnc(N)c(F)c3)n2cc1S(=O)(=O)C(C)(C)C [Example 73, 5-(6-(tert-butylsulfonyl)-7-methoxyimidazo[1,2-a]pyridin-3-yl)-3-fluoropyridin-2-amine] | – | > 1000 | > 20
13 | COc1cc2ncc(-c3cc(OC)c(N)nc3F)n2cc1S(=O)(=O)C(C)(C)C [Example 74, 5-(6-(tert-butylsulfonyl)-7-methoxyimidazo[1,2-a]pyridin-3-yl)-6-fluoro-3-methoxypyridin-2-amine] | 2.5 to 20 | > 1000 | –
14 | COc1cc2ncc(-c3cc(Cl)c(N)nc3F)n2cc1S(=O)(=O)C(C)(C)C [Example 75, 5-(6-(tert-butylsulfonyl)-7-methoxyimidazo[1,2-a]pyridin-3-yl)-3-chloro-6-fluoropyridin-2-amine] | 2.5 to 20 | 50 to 250 | –
15 | COc1cc2ncc(-c3ccc(N)c(OC)c3F)n2cc1S(=O)(=O)C(C)(C)C [Example 76, 4-(6-(tert-butylsulfonyl)-7-methoxyimidazo[1,2-a]pyridin-3-yl)-3-fluoro-2-methoxyaniline] | – | > 1000 | > 20
16 | COc1cc2ncc(-c3ccc(N(C)C)nc3F)n2cc1S(=O)(=O)C(C)(C)C [Example 77, 5-(6-(tert-butylsulfonyl)-7-methoxyimidazo[1,2-a]pyridin-3-yl)-6-fluoro-N,N-dimethylpyridin-2-amine] | – | > 1000 | > 20
17 | COc1cc(N)ncc1-c1cnc2cc(OC)c(S(=O)(=O)C(C)(C)C)cn12 [Example 78, 5-(6-(tert-butylsulfonyl)-7-methoxyimidazo[1,2-a]pyridin-3-yl)-4-methoxypyridin-2-amine] | – | > 1000 | > 20
18 | COc1cc2ncc(-c3ccc(N)nc3OC)n2cc1S(=O)(=O)C(C)(C)C [Example 79, 5-(6-(tert-butylsulfonyl)-7-methoxyimidazo[1,2-a]pyridin-3-yl)-6-methoxypyridin-2-amine] | – | > 1000 | > 20

Row | Compound | IC50 [1] [nM] | IC50 [2] [nM] | IC50 [1, 3] [nM]
19 | COc1cc2ncc(-c3cc(C#N)c(N)cc3F)n2cc1S(=O)(=O)C(C)(C)C [Example 80, 2-amino-5-(6-(tert-butylsulfonyl)-7-methoxyimidazo[1,2-a]pyridin-3-yl)-4-fluorobenzonitrile] | 2.5 to 20 | 250 to 1000 | –
20 | COc1cc2ncc(-c3cc(F)c(N)cc3F)n2cc1S(=O)(=O)C(C)(C)C [Example 81, 4-(6-(tert-butylsulfonyl)-7-methoxyimidazo[1,2-a]pyridin-3-yl)-2,5-difluoroaniline] | 2.5 to 20 | 250 to 1000 | –
21 | COc1cc2ncc(-c3cc(F)c(N)nc3F)n2cc1S(=O)(=O)C(C)(C)C [Example 82, 5-(6-(tert-butylsulfonyl)-7-methoxyimidazo[1,2-a]pyridin-3-yl)-3,6-difluoropyridin-2-amine] | 2.5 to 20 | 250 to 1000 | –
22 | COc1cc2ncc(-c3ccc(N)c(F)c3F)n2cc1S(=O)(=O)C(C)(C)C [Example 83, 4-(6-(tert-butylsulfonyl)-7-methoxyimidazo[1,2-a]pyridin-3-yl)-2,3-difluoroaniline] | – | > 1000 | > 20
23 | COc1cc2ncc(-c3cnc(N)c(C4CC4)c3)n2cc1S(=O)(=O)C(C)(C)C [Example 84, 5-(6-(tert-butylsulfonyl)-7-methoxyimidazo[1,2-a]pyridin-3-yl)-3-cyclopropylpyridin-2-amine] | – | > 1000 | > 20
24 | COc1cc2ncc(-c3ccc(N)c(Cl)c3)n2cc1S(=O)(=O)C(C)(C)C [Example 85, 4-(6-(tert-butylsulfonyl)-7-methoxyimidazo[1,2-a]pyridin-3-yl)-2-chloroaniline] | 2.5 to 20 | 250 to 1000 | –
25 | COc1cc2ncc(-c3ccc(N)c(Cl)c3F)n2cc1S(=O)(=O)C(C)(C)C [Example 86, 4-(6-(tert-butylsulfonyl)-7-methoxyimidazo[1,2-a]pyridin-3-yl)-2-chloro-3-fluoroaniline] | 2.5 to 20 | > 1000 | –
26 | COc1cc(-c2cnc3cc(OC)c(S(=O)(=O)C(C)(C)C)cn23)ccc1N [Example 87, 4-(6-(tert-butylsulfonyl)-7-methoxyimidazo[1,2-a]pyridin-3-yl)-2-methoxyaniline] | 2.5 to 20 | > 1000 | –
27 | COc1cc2ncc(-c3cnc(N)c(OC(F)(F)F)c3)n2cc1S(=O)(=O)C(C)(C)C [Example 88, 5-(6-(tert-butylsulfonyl)-7-methoxyimidazo[1,2-a]pyridin-3-yl)-3-(trifluoromethoxy) pyridin-2-amine] | – | > 1000 | > 20
28 | COc1cc2ncc(-c3ccc(N)c(OC(F)(F)F)c3)n2cc1S(=O)(=O)C(C)(C)C [Example 89, 4-(6-(tert-butylsulfonyl)-7-methoxyimidazo[1,2-a]pyridin-3-yl)-2-(trifluoromethoxy)aniline] | 2.5 to 20 | > 1000 | –
29 | COc1cc(-c2cnc3cc(OC)c(S(=O)(=O)C(C)(C)C)cn23)c(F)cc1N [Example 90, 4-(6-(tert-butylsulfonyl)-7-methoxyimidazo[1,2-a]pyridin-3-yl)-5-fluoro-2-methoxyaniline] | 2.5 to 20 | 250 to 1000 | –
30 | COc1cc2ncc(-c3ccc(N)c(C#N)c3F)n2cc1S(=O)(=O)C(C)(C)C [Example 91, 6-amino-3-(6-(tert-butylsulfonyl)-7-methoxyimidazo[1,2-a]pyridin-3-yl)-2-fluorobenzonitrile] | 2.5 to 20 | > 1000 | –
31 | COc1cc2ncc(-c3cnc(N)c(CO)c3)n2cc1S(=O)(=O)C(C)(C)C [Example 92, (2-amino-5-(6-(tert-butylsulfonyl)-7-methoxyimidazo[1,2-a]pyridin-3-yl)pyridin-3-yl)methanol] | – | > 1000 | > 20
32 | COc1cc2ncc(-c3cnc(N)nc3)n2cc1S(=O)(=O)C(C)(C)C [Example 93, 5-(6-(tert-butylsulfonyl)-7-methoxyimidazo[1,2-a]pyridin-3-yl)pyrimidin-2-amine] | – | > 1000 | > 20
33 | CNc1ncc(-c2cnc3cc(OC)c(S(=O)(=O)C(C)(C)C)cn23)cc1F [Example 94, 5-(6-(tert-butylsulfonyl)-7-methoxyimidazo[1,2-a]pyridin-3-yl)-3-fluoro-N-methylpyridin-2-amine] | – | > 1000 | > 20
34 | COc1cn2ncc(-c3ccc(N)c(C#N)c3)c2cc1S(=O)(=O)C(C)(C)C [Example 95, 2-amino-5-(5-(tert-butylsulfonyl)-6-methoxypyrazolo[1,5-a]pyridin-3-yl)benzonitrile] | 2.5 to 20 | 250 to 1000 | –
35 | COc1cc2ncc(-c3cc(C)c(N)nc3F)n2cc1S(=O)(=O)C(C)(C)C [Example 96, 5-(6-(tert-butylsulfonyl)-7-methoxyimidazo[1,2-a]pyridin-3-yl)-6-fluoro-3-methylpyridin-2-amine] | 2.5 to 20 | 250 to 1000 | –
